Molecules are shown by their SMILES.

The text below walks through data of patent US11168052B2, “Carbamate derivative compounds, processes for preparing them and their uses” (BIO-PHARM SOLUTIONS CO., LTD., priority 2016, dated 2021).

The test concerns corneally kindled rats. Briefly: Corneal kindling (CK) rat model. It is filed as in vivo, Sprague-Dawley rats. The settings on record: po. The text has this:
Male Sprague-Dawley rats (purchased from Orient Bio Inc. Korea) of body weight 85-100 g were used for these studies. The MES test using the electroshock seizure apparatus designed by Rodent Shocker Type221 (Hugo Sachs Elektronik, Germany). The kindled rat models were electrically stimulated (8 mA, 60 Hz, 2 s, corneal electrodes) twice daily for 21 days until stage 5 seizure scored by Racine's scale (Racine, 1972) were evoked. The kindled rats were fasted and adapted to test condition, for at least 1 hour before the administration of test material. The drugs were administered orally (p.o.) in a volume of 4 μl/g body weight. The corneally kindled rat model test is a model for generalized […] seizures or bipolar disorder and identifies the compound which prevents seizure or bipolar disorder spread. The shock level was set at 8 mA, 60 Hz and the duration was set at 2 s. A drop of 0.9% saline was placed in each eye, the electrodes were placed over the eyes, and the shock was administered immediately. Pharmacological effects of the test materials were evaluated to compare the test groups (n=6) with a control group (n=6). Control group was administrated vehicle, only. The peak time was determined by administration test material's random dose for 0.5, 1, 2, 4 hour. The time that the most protect was defined peak time and ED50 was determined by other dose administration at peak time. […]

The term ED50 denotes the dose at which the effect has come halfway, by size or by number of responders. With `NC(=O)O[C@@H]1CCc2cccc(Cl)c2[C@@H]1O` [Example 1, (1S, 2R)-8-chloro-1-hydroxy-1,2,3,4-tetrahydronaphthalen-2-yl carbamate], the 50% effect level (ED50) was put at a dose of 7.5 mg/kg.
